Data reported in PMC10937199 (ESMO Open, 2024).

Experiments:
Type in all cases: in vivo, human
[1] = tested on: patients with advanced solid tumors; assay: Safety; details: Part A
[2] = tested on: patients with advanced solid tumors; assay: Safety; details: Part FE
advanced solid tumors = assay: Best overall response per RECIST version 1.1, Part A

For `COc1ccc([C@@H](O)c2cc(-c3ncnc4cc(N5CCOCC5)ccc34)c(F)cc2Cl)nn1` [Peposertib], the “Serious TEAE, treatment related” value ([1]; 300 mg b.i.d., grade ≥3) was 1 (16.7) n (%), the TEAE ([1]; 300 mg b.i.d., grade ≥3) was 5 (83.3) n (%) and the “TEAE, peposertib related” value ([1]; 300 mg b.i.d., grade ≥3) was 0 n (%). The “TEAE, treatment related” value ([1]; 300 mg b.i.d., grade ≥3) was 2 (33.3) n (%), the “TEAEs leading to death” value ([1]; 300 mg b.i.d., grade ≥3) was 2 (33.3) n (%) and the “Treatment-related AE leading to death” value ([1]; 300 mg b.i.d., grade ≥3) was 0 n (%). The IRR ([1]; 400 mg b.i.d., all grade) was 0 n (%), the “Immune-related AE” value ([1]; 400 mg b.i.d., all grade) was 1 (25.0) n (%) and the “Serious TEAE” value ([1]; 400 mg b.i.d., all grade) was 4 (100.0) n (%). The “Serious TEAE, peposertib related” value ([1]; 400 mg b.i.d., all grade) was 3 (75.0) n (%), the “Serious TEAE, treatment related” value ([1]; 400 mg b.i.d., all grade) was 3 (75.0) n (%) and the TEAE ([1]; 400 mg b.i.d., all grade) was 4 (100.0) n (%). For the same molecule, the “TEAE, peposertib related” value ([1]; 400 mg b.i.d., all grade) was 4 (100.0) n (%), the “TEAE, treatment related” value ([1]; 400 mg b.i.d., all grade) was 4 (100.0) n (%) and the “TEAEs leading to death” value ([1]; 400 mg b.i.d., all grade) was 0 n (%). For the same molecule, the “Treatment-related AE leading to death” value ([1]; 400 mg b.i.d., all grade) was 0 n (%), the IRR ([1]; 400 mg b.i.d., grade ≥3) was 0 n (%) and the “Immune-related AE” value ([1]; 400 mg b.i.d., grade ≥3) was 1 (25.0) n (%). For the same molecule, the “Serious TEAE” value ([1]; 400 mg b.i.d., grade ≥3) was 4 (100.0) n (%), the “Serious TEAE, peposertib related” value ([1]; 400 mg b.i.d., grade ≥3) was 3 (75.0) n (%) and the “Serious TEAE, treatment related” value ([1]; 400 mg b.i.d., grade ≥3) was 3 (75.0) n (%). For the same molecule, the TEAE ([1]; 400 mg b.i.d., grade ≥3) was 4 (100.0) n (%), the “TEAE, peposertib related” value ([1]; 400 mg b.i.d., grade ≥3) was 4 (100.0) n (%) and the “TEAE, treatment related” value ([1]; 400 mg b.i.d., grade ≥3) was 4 (100.0) n (%). For the same molecule, the “TEAEs leading to death” value ([1]; 400 mg b.i.d., grade ≥3) was 0 n (%), the “Treatment-related AE leading to death” value ([1]; 400 mg b.i.d., grade ≥3) was 0 n (%) and the “Discontinuation of all study treatments due to AEs” value ([1]; all dose levels) was 11 (37.9%). For the same molecule, the “Peposertib-related TEAE: fatigue” value ([1]; all dose levels) was 8 (27.6%), the “Peposertib-related TEAE: nausea” value ([1]; all dose levels) was 9 (31.0%) and the “Peposertib-related TEAE: vomiting” value ([1]; all dose levels) was 9 (31.0%). For the same molecule, the “Serious TEAE: sepsis” value ([2]; 100 mg b.i.d.) was 2/4, the IRR ([2]; 100 mg b.i.d., all grade) was 1 (25.0) n (%) and the “Immune-related AE” value ([2]; 100 mg b.i.d., all grade) was 0 n (%). For the same molecule, the “Serious TEAE” value ([2]; 100 mg b.i.d., all grade) was 2 (50.0) n (%), the “Serious TEAE, peposertib related” value ([2]; 100 mg b.i.d., all grade) was 1 (25.0) n (%) and the “Serious TEAE, treatment related” value ([2]; 100 mg b.i.d., all grade) was 1 (25.0) n (%). The TEAE ([2]; 100 mg b.i.d., all grade) was 4 (100.0) n (%), the “TEAE leading to death” value ([2]; 100 mg b.i.d., all grade) was 1 (25.0) n (%) and the “TEAE, peposertib related” value ([2]; 100 mg b.i.d., all grade) was 3 (75.0) n (%). The “TEAE, treatment related” value ([2]; 100 mg b.i.d., all grade) was 3 (75.0) n (%), the “Treatment-related AE leading to death” value ([2]; 100 mg b.i.d., all grade) was 0 n (%) and the IRR ([2]; 100 mg b.i.d., grade ≥3) was 0 n (%). The “Immune-related AE” value ([2]; 100 mg b.i.d., grade ≥3) was 0 n (%), the “Serious TEAE” value ([2]; 100 mg b.i.d., grade ≥3) was 2 (50.0) n (%) and the “Serious TEAE, peposertib related” value ([2]; 100 mg b.i.d., grade ≥3) was 1 (25.0) n (%). The “Serious TEAE, treatment related” value ([2]; 100 mg b.i.d., grade ≥3) was 1 (25.0) n (%), the TEAE ([2]; 100 mg b.i.d., grade ≥3) was 3 (75.0) n (%) and the “TEAE leading to death” value ([2]; 100 mg b.i.d., grade ≥3) was 1 (25.0) n (%). The “TEAE, peposertib related” value ([2]; 100 mg b.i.d., grade ≥3) was 1 (25.0) n (%), the “TEAE, treatment related” value ([2]; 100 mg b.i.d., grade ≥3) was 1 (25.0) n (%) and the “Treatment-related AE leading to death” value ([2]; 100 mg b.i.d., grade ≥3) was 0 n (%). The IRR ([2]; 200 mg b.i.d., all grade) was 1 (20.0) n (%), the “Immune-related AE” value ([2]; 200 mg b.i.d., all grade) was 2 (40.0) n (%) and the “Serious TEAE” value ([2]; 200 mg b.i.d., all grade) was 3 (60.0) n (%). For the same molecule, the “Serious TEAE, peposertib related” value ([2]; 200 mg b.i.d., all grade) was 1 (20.0) n (%), the “Serious TEAE, treatment related” value ([2]; 200 mg b.i.d., all grade) was 2 (40.0) n (%) and the TEAE ([2]; 200 mg b.i.d., all grade) was 5 (100.0) n (%). The “TEAE leading to death” value ([2]; 200 mg b.i.d., all grade) was 1 (20.0) n (%), the “TEAE, peposertib related” value ([2]; 200 mg b.i.d., all grade) was 5 (100.0) n (%) and the “TEAE, treatment related” value ([2]; 200 mg b.i.d., all grade) was 5 (100.0) n (%). For the same molecule, the “Treatment-related AE leading to death” value ([2]; 200 mg b.i.d., all grade) was 0 n (%), the IRR ([2]; 200 mg b.i.d., grade ≥3) was 1 (20.0) n (%) and the “Immune-related AE” value ([2]; 200 mg b.i.d., grade ≥3) was 2 (40.0) n (%). For the same molecule, the “Serious TEAE” value ([2]; 200 mg b.i.d., grade ≥3) was 3 (60.0) n (%), the “Serious TEAE, peposertib related” value ([2]; 200 mg b.i.d., grade ≥3) was 1 (20.0) n (%) and the “Serious TEAE, treatment related” value ([2]; 200 mg b.i.d., grade ≥3) was 2 (40.0) n (%). The TEAE ([2]; 200 mg b.i.d., grade ≥3) was 4 (80.0) n (%), the “TEAE leading to death” value ([2]; 200 mg b.i.d., grade ≥3) was 1 (20.0) n (%) and the “TEAE, peposertib related” value ([2]; 200 mg b.i.d., grade ≥3) was 3 (60.0) n (%). The “TEAE, treatment related” value ([2]; 200 mg b.i.d., grade ≥3) was 4 (80.0) n (%), the “Treatment-related AE leading to death” value ([2]; 200 mg b.i.d., grade ≥3) was 0 n (%) and the “Discontinuation of all study treatments due to AEs” value ([2]; all dose levels) was 4 (44.4%). The “Peposertib-related TEAE: diarrhea” value ([2]; all dose levels) was 4 (44.4%), the “Peposertib-related TEAE: fatigue” value ([2]; all dose levels) was 5 (55.6%) and the “Patients with complete response (CR) or partial response (PR)” value (advanced solid tumors) was “no patients”. For the same molecule, the “Best overall response of stable disease (SD) or non-CR/non-PD” value (advanced solid tumors; all dose levels) was 17.2%.
